Test results published in patent US20260297113A1, “DIAZABICYCLOOCTANE INHIBITORS OF KRAS(G12D) AND USES” (Ranok Therapeutics (Hangzhou) Co. Ltd., priority 2023, published 2026).
Like-named read-outs stand apart in the source and are kept apart here.

How the values were obtained:
Assay type in all cases: cell-based
MKN1 cells = assay: MKN1 cell proliferation (CellTiter-Glo); conditions: 0.5% DMSO, read-out: CTG(IC50) ABS-72 H(nM) MKN1
Procedure: (§1) AGS, A-427, ASPC1, SW 1990, and GP2D cells were plated in 96-well tissue culture plates at 4,000 cells/well and incubated at 37° […] for 72 hr in 100 μl of media. 3-old serial dilutions of each test compound were prepared ranging from 20 μM to 1.02 nM. Each cell line was then treated with test compounds at various concentrations with a final concentration of 0.5% DMSO/well, and then incubated at 37° C./5% CO2 for 72 hr. 100 μl of CellTiter-Glo® Reagent (Promega Corporation, Madison, WI) was added to each well and processed according manufacturer's protocol. Results were analyzed and IC50 values were calculated in GraphPad 7 software. AGS proliferation assay: A. EC50<100 nM; B. EC50=100-1000 nM; C. EC50>1000 nM; GP2D proliferation assay: A. EC50<100 nM; B. EC50=100-1000 nM; C. EC50>1000 nM; MKN1 proliferation assay: A. EC50<100 nM; B. EC50=100-1000 nM; C. EC50>1000 nM;

GP2D cells = assay: GP2D cell proliferation (CellTiter-Glo); conditions: 72 hr, 0.5% DMSO, read-out: CTG(IC50) ABS-72 H(nM) GP2D
Procedure: as §1

AGS cells = assay: AGS cell proliferation (CellTiter-Glo); conditions: AGS gastric carcinoma [heterozygous G12D], 72 hr, 0.5% DMSO, read-out: CTG(IC50) ABS-72 H(nM) AGS
Procedure: The following cancer cell lines were employed: AGS gastric carcinoma [heterozygous G12D](ATCC, CRL-1739); A-427 lung carcinoma [heterozygous G12D](ATCC, HTB-53); ASPC1 pancreatic adenocarcinoma [homozygous G12D](ATCC, CRL-1682) and SW 1990 pancreatic adenocarcinoma [homozygous G12D](ATCC CRL-2172). Cell lines were cultured essentially according to ATCC recommendations.
as §1

2-(3-(2-[(1-(3-azabicyclo[3.1.0]hexan-3-ylmethylcyclopropyl) methoxy]-7-(8-ethynyl-7-fluoro-3-hydroxynaphthalen-1-yl)-8-fluoro-5-methoxypyrido[4,3-d]pyrimidin-4-yl-3,8-diazabicyclo[3.2.1]octan-8-yl)acetonitrile [Compound 1]
IC50 (MKN1 cells; 72 hr): > 1000 nM
IC50 (GP2D cells): < 100 nM
IC50 (AGS cells): < 100 nM

C#Cc1c(F)ccc2cc(O)cc(-c3nc(OC)c4c(N5CC6CCC(C5)N6C(=O)C#N)nc(OCC5(CN6CC7CC7C6)CC5)nc4c3F)c12 (centres unmarked) [Compound 2]
IC50 (MKN1 cells; Homo sapiens, MKN-1, 72 hr): 100 to 1000 nM
IC50 (GP2D cells): < 100 nM
IC50 (AGS cells; Homo sapiens): < 100 nM

C#Cc1c(F)ccc2cc(O)cc(-c3nc(OC)c4c(N5CC6CCC(C5)N6CCC#N)nc(OCC5(CN6CC7CC7C6)CC5)nc4c3F)c12 (centres unmarked) [Compound 3]
IC50 (MKN1 cells; Homo sapiens, MKN-1, 72 hr): > 1000 nM
IC50 (GP2D cells): < 100 nM
IC50 (AGS cells; Homo sapiens): 100 to 1000 nM

C#Cc1c(F)ccc2cc(O)cc(-c3nc(OC)c4c(N5CC6CCC(C5)N6CC(F)(F)F)nc(OCC5(CN6CC7CC7C6)CC5)nc4c3F)c12 (centres unmarked) [Compound 4]
IC50 (MKN1 cells; Homo sapiens, MKN-1, 72 hr): > 1000 nM
IC50 (GP2D cells): 100 to 1000 nM
IC50 (AGS cells; Homo sapiens): > 1000 nM

C#Cc1c(F)ccc2cc(O)cc(-c3nc(OC)c4c(N5CC6CCC(C5)N6CCOC)nc(OCC5(CN6CC7CC7C6)CC5)nc4c3F)c12 (centres unmarked) [Compound 5]
IC50 (MKN1 cells; Homo sapiens, MKN-1, 72 hr): > 1000 nM
IC50 (GP2D cells): < 100 nM
IC50 (AGS cells; Homo sapiens): 100 to 1000 nM

C#Cc1c(F)ccc2cc(O)cc(-c3nc(OC)c4c(N5CC6CCC(C5)N6CCO)nc(OCC5(CN6CC7CC7C6)CC5)nc4c3F)c12 (centres unmarked) [Compound 6]
IC50 (MKN1 cells; Homo sapiens, MKN-1, 72 hr): 100 to 1000 nM
IC50 (GP2D cells): < 100 nM
IC50 (AGS cells; Homo sapiens): 100 to 1000 nM

C#Cc1c(F)ccc2cc(O)cc(-c3nc(OC)c4c(N5CC6CCC(C5)N6CCCO)nc(OCC5(CN6CC7CC7C6)CC5)nc4c3F)c12 (centres unmarked) [Compound 7]
IC50 (MKN1 cells; Homo sapiens, MKN-1, 72 hr): 100 to 1000 nM
IC50 (GP2D cells): < 100 nM
IC50 (AGS cells; Homo sapiens): 100 to 1000 nM

C#Cc1c(F)ccc2cc(O)cc(-c3nc(OC)c4c(N5CC6CCC(C5)N6CC#N)nc(OC[C@]56CCCN5C[C@@H](F)C6)nc4c3F)c12 [Compound 8]
IC50 (MKN1 cells; Homo sapiens, MKN-1, 72 hr): > 1000 nM
IC50 (GP2D cells): < 100 nM
IC50 (AGS cells; Homo sapiens): < 100 nM

C#CCN1C2CCC1CN(c1nc(OCC3(CN4CC5CC5C4)CC3)nc3c(F)c(-c4cc(O)cc5ccc(F)c(C#C)c45)nc(OC)c13)C2 (centres unmarked) [Compound 9]
IC50 (MKN1 cells; Homo sapiens, MKN-1, 72 hr): > 1000 nM
IC50 (GP2D cells): < 100 nM
IC50 (AGS cells; Homo sapiens): < 100 nM

[2H]C([2H])([2H])Oc1nc(-c2cc(O)cc3ccc(F)c(C#C)c23)c(F)c2nc(OCC3(CN4CC5CC5C4)CC3)nc(N3CC4CCC(C3)N4C#N)c12 (centres unmarked) [Compound 10]
IC50 (MKN1 cells; Homo sapiens, MKN-1, 72 hr): 100 to 1000 nM
IC50 (GP2D cells): < 100 nM
IC50 (AGS cells; Homo sapiens): 100 to 1000 nM

[2H]C([2H])([2H])Oc1nc(-c2cc(O)cc3ccc(F)c(C#C)c23)c(F)c2nc(OCC3(CN4CC5CC5C4)CC3)nc(N3CC4CCC(C3)N4CC#N)c12 (centres unmarked) [Compound 11]
IC50 (MKN1 cells; Homo sapiens, MKN-1, 72 hr): 100 to 1000 nM
IC50 (GP2D cells): < 100 nM
IC50 (AGS cells; Homo sapiens): < 100 nM

C#Cc1c(F)ccc2cc(O)cc(-c3nc(OC)c4c(N5CC6CCC(C5)N6CC(C)=O)nc(OCC5(CN6CC7CC7C6)CC5)nc4c3F)c12 (centres unmarked) [Compound 12]
IC50 (MKN1 cells; Homo sapiens, MKN-1, 72 hr): > 1000 nM
IC50 (GP2D cells): < 100 nM
IC50 (AGS cells; Homo sapiens): < 100 nM

C#Cc1c(F)ccc2cc(O)cc(-c3nc(OC)c4c(N5CC6CCC(C5)N6CC(F)F)nc(OCC5(CN6CC7CC7C6)CC5)nc4c3F)c12 (centres unmarked) [Compound 13]
IC50 (MKN1 cells; Homo sapiens, MKN-1, 72 hr): > 1000 nM
IC50 (GP2D cells): 100 to 1000 nM
IC50 (AGS cells; Homo sapiens): 100 to 1000 nM

C#Cc1c(F)ccc2cc(O)cc(-c3nc(OC)c4c(N5CC6CCC(C5)N6CCCC#N)nc(OCC5(CN6CC7CC7C6)CC5)nc4c3F)c12 (centres unmarked) [Compound 14]
IC50 (MKN1 cells; Homo sapiens, MKN-1, 72 hr): 100 to 1000 nM
IC50 (GP2D cells): < 100 nM
IC50 (AGS cells; Homo sapiens): < 100 nM

C#Cc1c(F)ccc2cc(O)cc(-c3nc(OC)c4c(N5CC6CCC(C5)N6C(C)CCC#N)nc(OCC5(CN6CC7CC7C6)CC5)nc4c3F)c12 (centres unmarked) [Compound 15]
IC50 (MKN1 cells; Homo sapiens, MKN-1, 72 hr): > 1000 nM
IC50 (GP2D cells): > 1000 nM
IC50 (AGS cells; Homo sapiens): 100 to 1000 nM

C#Cc1c(F)ccc2cc(O)cc(-c3nc(OC)c4c(N5CC6CCC(C5)N6CCC(=O)O)nc(OCC5(CN6CCC(F)CC6)CC5)nc4c3F)c12 [Compound 16]
IC50 (MKN1 cells; Homo sapiens, MKN-1, 72 hr): > 1000 nM
IC50 (GP2D cells): 100 to 1000 nM
IC50 (AGS cells; Homo sapiens): > 1000 nM

C#Cc1c(F)ccc2cc(O)cc(-c3nc(OC)c4c(N5CC6CCC(C5)N6CCCF)nc(OCC5(CN6CCC(F)CC6)CC5)nc4c3F)c12 [Compound 17]
IC50 (MKN1 cells; Homo sapiens, MKN-1, 72 hr): > 1000 nM
IC50 (GP2D cells): < 100 nM
IC50 (AGS cells; Homo sapiens): 100 to 1000 nM

C#Cc1c(F)ccc2cc(O)cc(-c3nc(OC)c4c(N5CC6CCC(C5)N6CC(=O)O)nc(OCC5(CN6CCC(F)CC6)CC5)nc4c3F)c12 [Compound 18]
IC50 (MKN1 cells; Homo sapiens, MKN-1, 72 hr): > 1000 nM
IC50 (AGS cells; Homo sapiens): > 1000 nM
